Data on six compounds can be found in patent publication US10925848B2, “Amide derivative” (Daiichi Sankyo Company, Limited, priority 2017, dated 2021).

Where only a bound is given, the exact number is not on record here.

One experiment concerns Bacteroides. Put plainly: Indole production suppressing effect in viable bacterium. In kind it is cell-based. As to conditions: 5 mM L-Tryptophan assay medium, anaerobic, indole in culture supernatant, read-out: Bacteroides Indole Production Inhibitory Activity(IC50). The procedure:
The effect of a tryptophanase inhibitory compound to suppress indole production from a viable bacterium can be evaluated through the following operation.
When E. coli (Eschelicia coli) is used as a strain known to produce indole, the strain is cultured in an LB medium at 37° C. for 12 to 18 hours under anaerobic conditions, and then, suspended in an assay medium (5 mM L-Tryptophan/PBS(+)/25 mM HEPES (pH8)) in such a manner as to obtain O.D. of about 0.3. When bacteroides is used, the strain is cultured in a modified GAM medium at 37° C. for 12 to 18 hours under anaerobic conditions, and then suspended in an assay medium (5 mM L-Tryptophan/PBS(+)/25 mM HEPES (pH8)) in such a manner as to obtain O.D. of about 1.1. The thus obtained viable bacterial suspension prepared to have a final concentration of a compound of 1 μM to 10 mM is dispensed at 200 μL per well into a 96-well plate and cultured at 37° C. for 2 to 4 hours under anaerobic conditions, O.D., an ATP concentration (that can be quantitatively determined by using BacTiter-Glo (Promega Corporation)) and an indole concentration in the culture supernatant (that can be quantitatively determined by utilizing Ehrlich reaction) are measured. The effect of the tryptophanase inhibitory compound to suppress indole production from a viable bacterium can be evaluated depending on the degree of lowering of the indole concentration in the culture supernatant. It can be checked whether or not the effect is derived from a function other than tryptophanase inhibition, such as a bactericidal function or a bacterial growth inhibitory function, depending on lowering of the O.D. or reduction in the ATP concentration or by performing a generally practiced antibacterial activity test (a MIC (minimum growth inhibition concentration) test) using levofloxacin or the like as a positive control.
The activities of inhibiting indole production of the compounds of the respective examples shown in Table 13 were measured by the above-described method using Bacteroides to evaluate the effect of inhibiting indole production.

For another experiment, the system named is plasma indoxyl sulfate. Put plainly: Effect of reducing plasma indoxyl sulfate concentration in mice. It counts as in vivo. As to conditions: oral gavage, plasma 6 hours after L-tryptophan. The method, then:
An effect of a tryptophanase inhibitory compound to reduce plasma indoxyl sulfate concentration in a mouse can be evaluated through the following operation.
After fasting male BALB/c mice overnight, a tryptophanase inhibitory compound dissolved or suspended at a concentration of 0.01 to 10 mg/mL in 0.5% methylcellulose (MC) solution used as a solvent and 0.5% MC solution are orally administered by gavage at a volume of 10 mL/kg respectively to test compound groups and to a solvent control group. 30 minutes after the administration of the test compound or the solvent, L-tryptophan, that is, a substrate of tryptophanase, is orally administered by gavage at a dose of 1 to 3 g/kg. The L-tryptophan is suspended in a 0.5% tragacanth solution. For 12 hours after the administration of the L-tryptophan, blood is collected over time from a tail vein by using a hematocrit tube. The thus obtained blood is centrifuged at 11,000 rpm for 5 minutes to collect plasma, and the indoxyl sulfate concentration in the plasma is measured singly by liquid chromatography (fluorescence detection) or its combination with a mass spectrometer used subsequently. Plasma indoxyl sulfate concentration in the test compound group against the plasma indoxyl sulfate concentration in the solvent control group is calculated as, for example, a ratio of the area under a curve of the indoxyl sulfate concentration, and thus, the efficacy of each compound in vivo can be compared.
The indoxyl sulfate concentrations in plasma obtained by using the compounds of the respective examples shown in Table 14 below were measured by the above-described method to evaluate the plasma indoxyl sulfate suppressing effect.

Experiment [1] has as its target tryptophanase of Bacteroides tetaiotaomicron (Bacteroides thetaiotaomicron, UniProt Q8A7N2). Put plainly: Tryptophanase enzyme inhibitory activity (LDH-coupled NADH loss). In kind it is biochemical. As to conditions: 10 mM L-tryptophan, 30 min preincubation at 37° C., absorbance at 340 nm. The procedure:
Tryptophanase inhibitory activity was evaluated by a method using lactate dehydrogenase (LDH). The reaction time-dependent reduction in NADH conjugated with the enzymatic reaction, with LDH, of pyruvic acid produced through the enzymatic reaction of L-tryptophan as a substrate with tryptophanase, was measured with a spectrophotometer (Phillips-R S et al., Biochemistry, 23, 6228-6234 (1984)). Enzyme inhibitory activity obtained without adding a test compound (by adding DMSO alone) in the presence of tryptophanase was used as a control. As the enzyme, tryptophanase of Bacteroides tetaiotaomicron (Genbank accession number: HC914434.1) was used.
A test compound solution was prepared by dissolving each test compound in DMSO at concentrations (from 30 mM to 30 nM at 10-fold common ratio). LDH, NADH and L-tryptophan were dissolved, using distilled water, respectively to concentrations of 80 units/mL, 10 mM and 50 mM. Bacteroides tryptophanase was prepared to 30 mg/mL. A potassium phosphate buffer was used as the buffer.
A reaction solution A was dispensed at 284.8 μL per well into a 96-well plate, and the test compound solution was added at 3.2 μL per well to obtain a final concentration of 1/100 (reaction solution B). The reaction solution B was incubated at 37° C. for 30 minutes, L-tryptophan was added thereto at 32 μL per well to obtain a final concentration of […] (reaction solution C), and the enzyme reaction was performed at 37° C. over 30 minutes with absorbance at 340 nm measured for monitoring the NADH loss. Based on the NADH loss, the tryptophanase inhibitory activity of the compound was evaluated.

Chain of tryptophanase of Bacteroides tetaiotaomicron (Q8A7N2 entry or part of it, change not shown): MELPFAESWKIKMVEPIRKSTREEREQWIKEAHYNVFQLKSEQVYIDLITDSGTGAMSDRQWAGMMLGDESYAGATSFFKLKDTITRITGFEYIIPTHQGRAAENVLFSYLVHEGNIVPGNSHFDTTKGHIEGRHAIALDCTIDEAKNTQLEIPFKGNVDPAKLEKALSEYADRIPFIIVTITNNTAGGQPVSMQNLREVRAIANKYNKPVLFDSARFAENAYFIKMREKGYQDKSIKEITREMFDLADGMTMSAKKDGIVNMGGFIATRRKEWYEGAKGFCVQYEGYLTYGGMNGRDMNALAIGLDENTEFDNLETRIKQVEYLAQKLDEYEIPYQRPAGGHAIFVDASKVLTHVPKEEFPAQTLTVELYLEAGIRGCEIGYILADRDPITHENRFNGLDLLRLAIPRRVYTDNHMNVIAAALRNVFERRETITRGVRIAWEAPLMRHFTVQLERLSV

As for `CC[C@@](C)(NC(=O)c1cc(I)c(N)cc1OC)C(=O)O` [Compound of Example 16, (−)-N-(4-Amino-5-iodo-2-methoxybenzoyl)-D-isovaline], the IC50 is less than 3000 nM in the experiment on Bacteroides and 360 nM in experiment [1]. Besides, the “Plasma Indoxyl Sulfate Reduction Effect in Male BALB/c Mouse (Indoxyl sulfate reduction effect in plasma 6 hours after administration of L-tryptophan: ED75-, mg/kg)” value (from here on “Plasma Indoxyl Sulfate Reduction Effect”) in the experiment on plasma indoxyl sulfate is reported as 1 mg/kg.

For the compound `CCOc1cc(N)c(Br)cc1C(=O)N[C@](C)(CC)C(=O)O` [Compound of Example 21, (−)-N-(4-Amino-5-bromo-2-ethoxybenzoyl)-D-isovaline], the results for the IC50 (with Bacteroides; in experiment [1]) were less than 3000 nM and 100 nM, respectively. In the experiment with plasma indoxyl sulfate, the “Plasma Indoxyl Sulfate Reduction Effect” value was found to be 1 mg/kg.

Regarding `CCOc1cc(N)c(F)cc1C(=O)N[C@](C)(CC)C(=O)O` [Compound of Example 23, (−)-N-(4-Amino-2-ethoxy-5-fluorobenzoyl)-D-isovaline], the IC50 in the experiment with Bacteroides was less than 3000 nM; in experiment [1], 490 nM. For the same compound, the “Plasma Indoxyl Sulfate Reduction Effect” value in the experiment on plasma indoxyl sulfate is given as 1 mg/kg.

As for `CCOc1cc(N)c(F)cc1C(=O)N[C@@](C)(CC)C(=O)O` [Compound of Example 24, (+)-N-(4-Amino-2-ethoxy-5-fluorobenzoyl)-L-isovaline], the IC50 in the experiment on Bacteroides is less than 3000 nM; in experiment [1] it was 130 nM. The “Plasma Indoxyl Sulfate Reduction Effect” value in the experiment with plasma indoxyl sulfate came out at 1 mg/kg.

On to `CCCOc1cc(N)c(Cl)cc1C(=O)N[C@](C)(CC)C(=O)O` [Compound of Example 25, (−)-N-(4-Amino-5-chloro-2-propoxybenzoyl)-D-isovaline], for which the results for the IC50 (in the experiment on Bacteroides; in experiment [1]) were less than 3000 nM and 40 nM, respectively. Further, the “Plasma Indoxyl Sulfate Reduction Effect” value in the experiment on plasma indoxyl sulfate is on record as 1 mg/kg.

Turning to `CCCOc1cc(N)c(F)cc1C(=O)N[C@](C)(CC)C(=O)O` [Compound of Example 27, (−)-N-(4-Amino-5-fluoro-2-propoxybenzoyl)-D-isovaline], the IC50 in the experiment on Bacteroides is less than 3000 nM; in experiment [1], 90 nM. Besides, the “Plasma Indoxyl Sulfate Reduction Effect” value with plasma indoxyl sulfate is 1 mg/kg.
